Measured values reported in patent US20200392116A1, “SUBSTITUTED HETEROCYCLES AS c-MYC TARGETING AGENTS” (NORTHWESTERN UNIVERSITY, priority 2019, published 2020).

Legend:
[1] = system: MYC transcriptional activity (c-Myc E-box-luciferase reporter, MycCap cells); assay: MYC E-box luciferase reporter assay; type: cell-based; settings: 4 hours of treatment
Outline: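 MycCap cells stably carrying c-Myc E-box-luciferase reporter, with CMV-luciferase MycCap-luc as counterpart, seeded 10000 cells/well and treated next day with serial compound dilutions. Luminescence read at 4 h immediately after adding 150 μg/ml luciferin.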

[2] = system: PC3 prostate cancer cell line; assay: Proliferation assay of PC3 cells (MTS); type: cell-based; settings: Myc dependent cell line
Experimental: PC3 prostate cancer cell line with high Myc level and PC12 pheochromocytoma tumor cell line with non functional Max protein, which is not dependent on Myc-Max complex, were phased from ATCC. Cells were plated in 96 well plate at 1000 cells per well, and Myc inhibitor 361 at various concentrations was added to the cells next day. After 3 days of treatment, fresh medium with 361 were added again, and cell viability was measured by MTS assay at day 5 after the treatment. (See FIG. 11).

MycCap tumor [3] = assay: MycCap FVB allograft model; type: in vivo, FVB mice; settings: mouse prostate cancer allograft, intra-peritoneally
Experimental: FVB mice were inoculated with 1×10^6 of MycCap cells in 100 ul of matrigel subcutaneously on both flanks of the mice. When tumor size reached average size of 150 mm^3, mice were randomized based on tumor volume to 2 groups. Mice were administered with 50 mg/kg of 361 or vehicle(Veh) twice daily intra-peritoneally for two days. The treatment was suspended for 10 day, and initiated the treatment with a lower dose […] daily for another 9 days. Tumor size was measured twice a week during the experiment. (See FIG. 15).

MycCap tumor [4] = assay: MycCap FVB allograft model, combination with anti-PD-1 immunotherapy; type: in vivo, FVB mice; settings: combination with anti-PD-1 antibody
Experimental: MycCap FVB allograft model was treated with 361 (50 mg/kg) for two days, following by two days of anti-PD-1 antibody (100 ug/day), and kept this 4-day treatment cycle for 4 cycles. (See FIG. 16).

Cn1nc(C(F)(F)F)cc1-c1ccc(OCc2ccc(Cl)cc2)c(-c2cc(C(F)(F)F)cc(C(F)(F)F)c2)c1O [compound 361]
c-Myc transcription activity [1]: inhibits c-Myc transcription activity as an early event before affecting cell viability
proliferation of PC3 [2]: specifically inhibits proliferation
tumor volume (MycCap tumor [3]): reduces tumor volume
tumor progression (MycCap tumor [4]): significantly blocks tumor progression
